Data published in patent US20120101099A1, “HISTONE DEACETYLASE INHIBITORS” (ANTHEM BIOSCIENCES PRIVATE LIMITED, priority 2009, published 2012).
Counter-ions that a name gives are not always drawn.

Tests used:
[1] = test system: human HDAC (Hela cells nuclear extract); assay: HDAC activity screening, Hela nuclear extract, Boc-Lys(Ac)-AMC substrate; type: biochemical; details: Hela nuclear extract; for HDAC % Inhibition (1 μM): 1 μM compound; for HDAC % Inhibition (10 μM): 10 μM compound; for IC50: read-out: IC50 (50% HDAC inhibitory concentration), Table 2
Protocol: To study the human HDAC inhibition the in-house 96 well plate assay have been established using fluorescent substrate (Boc-Lys (Ac)-AMC Substrate). Hela cells nuclear extract have been used as enzyme source.
Assay was performed in 96-well black microplate and total volume of the assay was 100 μL. Hela nuclear extract was diluted HDAC assay buffer (final concentration of 3.0 μg/mL). Enzyme mixture was made of 10 μL of diluted enzyme and 30 μL of HDAC buffer. 40 μl of enzyme mixture followed by 10 μL of test compound (final concentration from 0.01 to 10 μM) or vehicle (control) was added to each well. The plate was pre-incubated at 37° C. for 10 minutes. The HDAC reaction was started by adding 50 μl of HDAC substrate Boc-Lys (Ac)-AMC (Anaspec, Inc Fremont, Calif., USA). The plate was incubated at 37° C. for 45 minutes. The reaction was stopped by adding 50 μL of Trypsin stop solution and plate further incubated at 37° C. for 15 minutes. Measuring the fluorescence at excitation wavelength of 360 nm and emission wavelength of 460 nm monitored the release of AMC. Buffer alone and substrate alone served as blank.

PA-1 = assay: Cell proliferation assay (MTT); type: cell-based; details: Homo sapiens, Table 1, MTT, 48 hours, read-out: Cell growth inhibition (GI50 in μM) PA-1
Protocol: (§1) Cells were seeded in a 96-well cell culture plates at a concentration of 10,000 cells per well and incubated at 37° C. in CO2 incubator.
(§2) Twenty-four hours later cells were treated with different concentrations (100, 10, 1, 0.1, and 0.01 μM) of compound dissolved in DMSO and incubated for 48 hours. For To measurement, 24 hours after seeding the cells, 20 μL of 3-(4.5-dimethyl-2- thiazolyl)-2,5-diphenyl-2H-tetrazolium (MTT) solution per well was added to the T0 plate and incubated for 3 hours at 37° C. in a CO2 incubator.
(§3) The plate containing cells and test compounds was treated similarly after 48 hours of incubation. After 3 hours of MTT addition, well contents were aspirated carefully followed by addition of 100 μL DMSO per well. Plates were agitated to ensure dissolution of the formazan crystals in DMSO and absorbance was read at 570 nm (A570). […] From the percentage growths a dose response curve was generated and GI50 values were interpolated from the growth curves.

A549 = assay: Cell proliferation assay (MTT); type: cell-based; details: Homo sapiens, A549; Table 1; MTT, 48 hours; read-out: Cell growth inhibition (GI50 in μM) A549
Protocol: as §1, §2, §3

PC-3 = assay: Cell proliferation assay (MTT); type: cell-based; details: Homo sapiens, PC-3; Table 1; MTT, 48 hours; read-out: Cell growth inhibition (GI50 in μM) PC-3
Protocol: as §1, §2, §3

[2] = Oral bioavailability and pharmacokinetics studies; type: in vivo, male Balb/c mice
Protocol: The studies were performed to determine the oral bioavailability and pharmacokinetics of test compounds in male Balb/c mice. Study was performed after obtaining the Institutional Animal Ethics Committee (IAEC) permission. Mice aged 5 to 6 weeks weighing around 25 to 30 g were used for this study. The animals were fasted overnight with free access to water. Animals were administered test compounds by oral route at a 50 mg/kg body weight (formulation: 0.5% methylcellulose in water and 0.1% tween 80. Dose volume 10 ml/kg b.w.) or intravenous route at a dose 10 mg/kg b.w. […] (formulation: 0.9% saline. Dose volume 10 ml/kg b.w.) Blood samples were collected at various time points during the next 24 hours post dose. The blood samples were centrifuged at 3000 g for 5 minutes at 4° C. and the corresponding plasma samples were collected in clean pre-labeled tubes. Then, each sample was subjected to a suitable extraction method and analysed by LC-MS/MS (API 3200 LC-MS/MS system). Data was analyzed using WinNonlin version 5.2 (Pharsight).

[3] = plasma, oral 50 mg/kg, male Balb/c mouse

| SMILES | HDAC % Inhibition (1 μM) [1] | HDAC % Inhibition (10 μM) [1] | IC50 [1] | GI50 (PA-1) | GI50 (A549) | GI50 (PC-3) | bioavailability ([2]; plasma, oral 50 mg/kg vs intravenous, male Balb/c mouse) | AUC(0-t) [2, 3] | Cmax [2, 3] | Tmax [2, 3] | half-life [2, 3] | times higher AUC ([2]; compared with SAHA, oral) | times longer terminal half life ([2]; compared with SAHA, oral) |
| --- | --- | --- | --- | --- | --- | --- | --- | --- | --- | --- | --- | --- | --- |
| CN(C)Cc1ccc(-c2cn(Cc3cccc(/C=C/C(=O)NO)c3)nn2)cc1 [Example 27, 3-{3-[4-(4-Dimethylaminomethyl-phenyl)-[1,2,3]triazol-1-ylmethyl]-phenyl}-N-hydroxy-acrylamide hydrochloride] | 99% | 99% | 1 nM | 0.02 µM | 0.4 ± 0.2 µM | 4.5 ± 5.7 µM |  |  |  |  |  |  |  |
| O=C(/C=C/c1cccc(Cn2cc(-c3ccc(CN4CCCC4)cc3)nn2)c1)NO [Example 26, N-Hydroxy-3-{3-[4-(4-pyrrolidin-1-ylmethyl-phenyl)-[1,2,3]triazol-1-ylmethyl]-phenyl}-acrylamide hydrochloride] | 99% | 99% | 1 nM | 0.03 µM | 0.9 ± 0.3 µM | 9.4 ± 6.2 µM |  |  |  |  |  |  |  |
| CN(C)Cc1ccc(-c2cn(Cc3ccc(C(=O)NO)cc3)nn2)cc1 [Example 10, 4-[4-(4-Dimethylaminomethyl-phenyl)-[1,2,3]triazol-1-ylmethyl]-N-hydroxy-benzamide] | 96% | 100% | 25 nM | 0.1 ± 0.02 µM | 3.2 ± 1.4 µM | 18.5 ± 10.2 µM |  |  |  |  |  |  |  |
| O=C(/C=C/c1ccc(Cn2cc(-c3ccc(CN4CCOCC4)cc3)nn2)cc1)NO [Example 20] | 96% | 100% | 19 nM | 0.16 ± 0.02 µM | 2.9 ± 1.8 µM | 12.7 ± 5.6 µM |  |  |  |  |  |  |  |
| CCN(CC)Cc1ccc(-c2cn(Cc3ccc(C(=O)NO)cc3)nn2)c(F)c1 [Example 13, 4-[4-(4-Diethylaminomethyl-2-fluoro-phenyl)-[1,2,3]triazol-1-ylmethyl]-N-hydroxy-benzamide] |  |  | 19.1 nM |  |  |  | 68 ± 6% | 3340 ng·h/mL | 3360 ng/mL | 4.8 min | 2 h |  |  |
| CCN(CC)CCc1ccc(-c2cn(Cc3ccc(C(=O)NO)cc3)nn2)cc1 [Example 11, 4-{4-[4-(2-Diethylamino-ethyl)-phenyl]-[1,2,3]triazol-1-ylmethyl}-N-hydroxy-benzamide] |  |  | 18.6 nM |  |  |  |  |  |  |  |  | 9 times | 2 times |
